Results as given in publication PMC8776894 (Communications Biology, 2022).

How the values were obtained:
[1] = test system: MCAO/R mice; details: mouse, in vivo
[2] = test system: MCAO/R mice; assay: Evans blue extravasation, BBB permeability; format: in vivo, mouse; details: VK 300 µg/kg
[3] = test system: AKT phosphorylation; assay: p-AKT immunoblot under OGD/R with HOE140; format: cell-based; details: HOE140 100 nM, VK 0.0735, 0.735, 7.35 µM
Source text: (5 pictures or pasted objects on this page, not shown here)

[4] = test system: rats; details: BK after transient forebrain ischemia in rats; ref not given; cited from earlier work
Description: After the onset of cerebral ischemia stroke, ATP levels expeditiously decline during the first 5 min and fall to ~15–30% of the ATP concentration measured in the non-ischemic hemisphere over the first 2 h after ischemia onset. In the present study, VK therapy partially recovered energy metabolism in the ischemic hemisphere as determined by the detection of ATP and LD content. Furthermore, to illustrate the effect of VK on energy metabolism in neurons, the glycolysis and oxidative phosphorylation pathways in neurons were also evaluated by Seahorse after stroke. Increasing evidence indicates tha ...

[5] = test system: brain of MCAO mice; assay: Fluorescence imaging of FITC-labeled VK in brain of stroke mice; format: in vivo, mouse; details: stroke mice, brains collected at 0, 30, 60, 90, 120 min, confocal microscopy of sections
Description: A successful MCAO model was established and these mice were used for subsequent experiments. Immediately after surgery, FITC or FITC-labeled VK were administered intravenously and mice were killed after 30 min to isolate the brain and imaged by an imaging system (IVIS Lumina II). For fluorescent imaging, the brain was immediately collected and kept in the dark for 0, 30, 60, and 90 min after the administration of VK. Frozen sections were prepared according to the above method (seen Morphological Assessment). Images were acquired by confocal microscopy (FV1000 MPE-B, Olympus).

[6] = test system: HT22 hippocampal neuron cells (OGD/R); assay: Live-cell imaging of FITC-labeled VK; format: cell-based, mouse; details: HT22 cells after OGD/R, 7.35 µM (b12; method b96: 100 nM), 37 °C, confocal fluorescence
Description: VK (Gly–Arg–Pro–Hyp–[…]NH2) was labeled with FITC in the N-terminus. VK (100 nM) was added to each well and, after 15 min of incubation at 37 °C, live-cell images were acquired and processed by confocal microscopy (Zeiss LSM 880). Live-cell images were recorded for 90 min. The negative group was FITC treated without labeled VK.
After 24 h, medium in the transwell
Cell cultures, treatment, and OGD.
Experiments were divided into the four

Molecule: HOE140
- major pharmacological effects of VK under HOE140 preconditioning [1]: blocked
- BBB integrity under combined administration of VK and HOE140, EB extravasation [2]: damaged the BBB integrity
- VK-mediated AKT activation [3]: inhibit VK-mediated AKT activation

Molecule: bradykinin (RPPGFSPFR; Bradykinin; UniProt P01042 381-389, looked up) [BK, endogenous peptide]
- neuroprotection [4]: 97%

Molecule: CC[C@H](C)[C@H](NC(=O)[C@H](CCCNC(=N)N)NC(=O)[C@H](Cc1ccccc1)NC(=O)[C@@H]1CCCN1C(=O)[C@H](CO)NC(=O)[C@H](Cc1ccccc1)NC(=O)CNC(=O)[C@@H]1C[C@@H](O)CN1C(=O)[C@@H]1CCCN1C(=O)[C@H](CCCNC(=N)N)NC(=O)CNC(=S)Nc1ccc2c(c1)C(=O)OC21c2ccc(O)cc2Oc2cc(O)ccc21)C(=O)N[C@@H](CC(=O)O)C(N)=O [FITC-labeled VK]
- distribution in brain regions [5]: seen in the cortex, hippocampus, and striatum
- crossing of the cell membrane, live-cell imaging [6]: partially crossed the cell membrane

Molecule: Lys-(des-Arg9-Leu8)-BK [reference compound]
- functional injury under combination of VK and B1R antagonist [1]: improved functional injury
